Data reported in publication PMC4982760, “Small-molecule inhibitors identify the RAD52-ssDNA interaction as critical for recovery from replication stress and for survival of BRCA2 deficient cells” (eLife, 2016).

Legend:
RPA = target: T1, RPA (Homo sapiens, UniProt P15927+P27694+P35244); assay: WaterLOGSY NMR binding to RPA; conditions: 20-40 μM compound, 3.3 μM RPA
T1 construct: made in house
Description: To confirm that the selected compounds bind RAD52, we employed water-ligand observation with gradient spectroscopy (WaterLOGSY), an NMR technique, which is based on transfer of magnetization from bulk water to the protein-bound compound of interest ([Dalvit et al., 2001], [2000]). In WaterLOGSY spectrum, if a compound binds to a protein, the compound will receive negative nuclear Overhauser effects (NOEs) due to the slow tumbling of the protein-compound complex, leading to a positive WaterLOGSY peak. […] Similarly, the binding of ‘6’to RAD52 is evident from the positive WaterLOGSY peaks that are clearly detected for this compound (Figure 3a).
Compound binding to RAD52 and RPA proteins was analyzed using water-ligand observation with gradient spectroscopy (WaterLOGSY) NMR experiments ([Dalvit et al., 2001], [2000]). The WaterLOGSY spectra of compounds in the presence of RAD52 or RPA were acquired using a water NOE mixing time of 1 s and a T2 relaxation filter of 50 ms just before data acquisition to suppress the broad signals derived from protein. The protein buffer used in the experiments contains 10 mM Tris-d11, 75 mM KCl, 0.25 mM EDTA, pH 7.5, and 10% D20. All NMR data were acquired on a Bruker Avance II 800 MHz NMR spectrometer equipped with a sensitive cryoprobe and recorded at 25°C. The ^1H chemical shifts were referenced to 2,2-dimethyl-2-silapentane-5-sulfonate (DSS). NMR spectra were processed using NMR Pipe ([Delaglio et al., 1995]) and analysed using NMR View ([Johnson and Blevins, 1994]).

[1] = system: GM01604 cells (hTERT-immortalized wild-type human fibroblasts); assay: Neutral comet assay, MUS81/EME1/RAD52-dependent DSB formation; format: cell-based; conditions: GM01604, HU + UCN01
Description: In human cells, RAD52 may perform both limited recombination-mediator function in the RAD51-dependent pathway ([Lok and Powell, 2012]; [Benson et al., 1998]; [Feng et al., 2011]) as well as additional RAD51-independent roles ([Lok and Powell, 2012]; [Murfuni et al., 2013]; [McIlwraith and West, 2008]). One of these HR independent roles of RAD52 involves stimulation of MUS81/EME1-dependent DSB formation at replication forks stalled by hydroxyurea (HU) treatment in the absence of cellular checkpoints ([Murfuni et al., 2013]). Since the most likely targets of these MUS81/EME1/RAD52-dependent DSBs are the DNA structures produced by RAD52 ([Murfuni et al., 2013]), we expected this activity to depend on the RAD52-ssDNA interaction (Figure 5a). To confirm this, we assessed DSB formation in checkpoint deficient cells using the neutral comet assay. These assays monitor MUS81/EME1/RAD52-dependent DSB formation upon induction of replication stress by HU treatment in primary fibroblasts immortalized by hTERT expression and treated with UNC01 to inhibit CHK1 kinase (Figure 5b). […] Importantly, these inhibitors recapitulate RAD52 depletion by inhibiting RAD52-MUS81-dependent DSBs at stalled replication forks (Figure 5a–b). […] It also confirms our previous supposition that the target of MUS81/EME1-mediated cleavage under these conditions are indeed the structures annealed by RAD52. […]
To induce RAD52-MUS81-dependent cleavage at arrested replication forks ([Murfuni et al., 2013]), hTERT-immortalized wild-type human fibroblasts (GM01604) were treated with 2 mM HU and 300 nM UCN01 for 6h, in the presence and absence of varying concentrations of ‘1’ or ‘6’. […] Slides were analyzed by a computerized image analysis system (Comet IV, Perceptive UK). To assess the quantity of DNA damage, computer-generated tail moment values (tail length x fraction of total DNA in the tail) were used. […] A minimum of 100 cells were analyzed for each compound concentration point.

GM01604 cells = assay: LIVE/DEAD cell viability assay; format: cell-based, human; conditions: 1 µM compound
Experimental: GM01604 cells were transfected with siRNAs directed against GFP (Ctrl), or against MUS81 (Qiagen), BRCA2 (Sigma-Aldrich), and RAD52 (Qiagen) 48 hr prior to addition of 1 µM ‘1’. Where indicated, the conditions of pathological replication were induced by treating cells with 2 mM HU and 300 nM UCN01 for 6 hr or by 18 hr treatment with 2 mM HU, in the presence or absence of ‘1’. Viability was evaluated by the LIVE/DEAD assay (Sigma-Aldrich) according to the manufacturer’s instructions. Cell number was counted in randomly chosen fields and expressed as percent of dead cells (number of red nuclear stained cells divided by the total cell number) corrected for the cell loss observed in the population. For each time point, at least 200 cells were counted.

T1 sequence (P27694 whole entry): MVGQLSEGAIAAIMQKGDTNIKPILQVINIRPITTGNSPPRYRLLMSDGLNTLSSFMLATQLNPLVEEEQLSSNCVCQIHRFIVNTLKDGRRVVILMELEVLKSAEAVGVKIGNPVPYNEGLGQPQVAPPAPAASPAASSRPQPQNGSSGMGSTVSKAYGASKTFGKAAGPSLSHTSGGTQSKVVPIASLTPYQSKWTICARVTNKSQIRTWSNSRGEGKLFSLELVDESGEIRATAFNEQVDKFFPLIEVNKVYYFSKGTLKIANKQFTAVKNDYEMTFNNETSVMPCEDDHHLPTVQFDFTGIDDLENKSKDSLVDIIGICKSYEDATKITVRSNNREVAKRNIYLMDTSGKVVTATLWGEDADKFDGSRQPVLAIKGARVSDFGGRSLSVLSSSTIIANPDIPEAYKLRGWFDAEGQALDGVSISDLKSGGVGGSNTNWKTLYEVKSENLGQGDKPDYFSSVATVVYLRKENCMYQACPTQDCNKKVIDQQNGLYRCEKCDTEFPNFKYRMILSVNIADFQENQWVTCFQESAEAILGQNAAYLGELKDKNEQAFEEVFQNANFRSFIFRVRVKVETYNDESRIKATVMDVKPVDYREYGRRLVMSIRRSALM
T1 sequence (P15927 whole entry): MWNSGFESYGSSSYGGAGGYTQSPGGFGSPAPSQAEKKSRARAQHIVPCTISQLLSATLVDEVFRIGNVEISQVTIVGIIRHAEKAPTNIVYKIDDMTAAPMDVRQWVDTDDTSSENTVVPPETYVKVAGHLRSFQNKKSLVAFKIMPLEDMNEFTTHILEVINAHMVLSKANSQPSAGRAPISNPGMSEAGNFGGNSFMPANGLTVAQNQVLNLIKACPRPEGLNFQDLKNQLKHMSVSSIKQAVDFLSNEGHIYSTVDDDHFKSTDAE
T1 sequence (P35244 whole entry): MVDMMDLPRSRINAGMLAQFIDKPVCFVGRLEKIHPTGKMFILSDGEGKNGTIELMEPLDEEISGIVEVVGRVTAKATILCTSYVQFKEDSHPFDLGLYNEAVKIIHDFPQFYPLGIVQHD

With `Oc1cc(O)c2c(c1)O[C@H](c1cc(O)c(O)c(O)c1)[C@H](O)C2` [Compound 1, (−)−Epigallocatechin] the “binding to RPA (WaterLOGSY)” value (RPA) was “neither binds to RPA”, the “concentration sufficient for same level of DSB reduction as siRNA treatment” value [1] was 1 µM and the “concentration with same reduction in DSBs as siRNA depletion of RAD52” value [1] was 500 nM. For the same molecule, the cell death (GM01604 cells; BRCA2-depleted GM01604, after replication stress (HU + UCN01)) was ~ 80%, the dead cells (GM01604 cells; MUS81-depleted GM01604, checkpoint-deficient, HU treated) was about 60% and the dead cells (GM01604 cells; MUS81-depleted GM01604, untreated) was “approximately 40%”.
